Test results published in paper PMC2859624 (Progress in neuro-psychopharmacology & biological psychiatry, 2010).
Where two headings read alike, the source gives them in different places.

Experiments:
[1] = target: human GABAA receptor containing α3 subunit (BZ site) (Homo sapiens, UniProt P18507+P34903); experiment: Competition binding assay with [3H]flunitrazepam; conditions: read-out: Ki α3, transfected HEK 293T, duplicate
[2] = target: T1, α2β3γ2 GABAA receptors (Rattus norvegicus, UniProt P18508+P23576); conditions: 100 nM, EC3 GABA, mean ± SEM; ref Rivas et al., 2009; cited from earlier work
[3] = tested on: male Wistar rats; experiment: Elevated plus maze; assay type: in vivo, rat; conditions: for effect on percentage of time on open arms: post hoc p 0.032
[4] = target: human GABAA receptor containing α5 subunit (BZ site) (Homo sapiens, UniProt P18507+P31644); experiment: Competition binding assay with [3H]flunitrazepam
[5] = target: T2, α5β3γ2 GABAA receptors (Rattus norvegicus, UniProt P18508+P19969); conditions: 100 nM, EC3 GABA, mean ± SEM; ref Rivas et al., 2009; cited from earlier work
[6] = target: T3, α3β3γ2 GABAA receptors (Rattus norvegicus, UniProt P18508+P20236); conditions: 100 nM, EC3 GABA, mean ± SEM; ref Rivas et al., 2009; cited from earlier work
[7] = target: T4, α1β3γ2 GABAA receptors (Rattus norvegicus, UniProt P18508+P62813); conditions: 100 nM, EC3 GABA, mean ± SEM; ref Rivas et al., 2009; cited from earlier work
[8] = tested on: male Wistar rats; experiment: Spontaneous locomotor activity; conditions: for dose inducing a hypolocomotor effect in the SLA: i.p.; for effect on total distance travelled during 45 min: 20 min before test, vs solvent; for effect on total distance (locomotion), 30 min: Dunnett's test
[9] = tested on: male Wistar rats; experiment: Morris water maze; assay type: in vivo, rat; conditions: for platform zone entries during the probe trial: after five-day treatment at 30 mg/kg i.p.; for overall influence on water maze learning parameters (acquisition): 5 days
[10] = target: human GABAA receptor containing α4 subunit (BZ site); conditions: read-out: Ki α4; second independent set of experiments
[11] = target: T2, α5β3γ2 GABAA receptors; assay type: cell-based; conditions: for % of control current, α5β3γ2: 100 nM, EC3 GABA, mean ± SEM
[12] = target: T1, α2β3γ2 GABAA receptors; assay type: cell-based; conditions: for % of control current, α2β3γ2: 100 nM, EC3 GABA, mean ± SEM, 0.1 µM
[13] = target: T3, α3β3γ2 GABAA receptors; assay type: cell-based; conditions: for remaining activity at 0.1 µM: read-out: % of control current, α3β3γ2, 100 nM, EC3 GABA, mean ± SEM
[14] = target: T4, α1β3γ2 GABAA receptors; assay type: cell-based
[15] = tested on: male Wistar rats; conditions: ref Savić et al., 2008b, cited from earlier work
[16] = tested on: male Wistar rats; conditions: 30 mg/kg; ref Savić et al., 2008b; cited from earlier work
[17] = target: human GABAA receptor containing α6 subunit (BZ site) (Homo sapiens, UniProt P18507+Q16445); experiment: Competition binding assay with [3H]flunitrazepam; conditions: read-out: Ki α6, transfected HEK 293T, duplicate
[18] = read-out: % of control current, α1β3γ2
[19] = zolpidem 0.5 mg/kg during acquisition, ±SEM
[20] = zolpidem 1.0 mg/kg during acquisition, ±SEM
[21] = zolpidem 2.0 mg/kg during acquisition, ±SEM
[22] = zolpidem 2.0 mg/kg during acquisition, ±SEM, P<0.05 vs ZOL 0.5

Compound: C#Cc1ccc2c(c1)C(c1ccccc1F)=NCc1c(C(=O)OCC)ncn1-2 [JY-XHe-053, 8-ethynyl-6-(2-fluorophenyl)-4H-2,5,10b-triaza-benzo[e]azulene-3-carboxylic acid ethyl ester]
- Ki [1]: 0.0349 µM
- % of control current, α2β3γ2 [2]: 307 ± 14%
- general activity and anxiety-related parameters ([3]; 2.5-40 mg/kg i.p.): devoid of significant behavioral activity
- binding selectivity for GABAA receptors containing the α5 subunit ([4]; from Ki values): approximately 18 fold
- % of control current, α5β3γ2 [5]: 220%
- % of control current, α3β3γ2 [6]: 345 ± 26%
- % of control current, α1β3γ2 [7]: 169%
- effect on central zone activity ([8]; 2.5-40 mg/kg i.p., 30 min): not discernible
- effect on peripheral zone distance ([8]; 2.5-40 mg/kg i.p., 30 min, vs control): three higher doses of JYXHe-053 were significantly different from control
- dose inducing a hypolocomotor effect in the SLA [8]: ≥ 10 mg/kg

Compound: C#Cc1ccc2c(c1)C(c1ccccn1)=NCc1c(C(=O)OCC)ncn1-2 [SH-053-2'N, 8-ethynyl-6-(2’-pyrydine)-4H-2,5,10b-triaza-benzo[e]azulene-3-carboxylic acid ethyl ester]
- latency to find the platform, single day ([9]; 30 mg/kg i.p., vs control or SH-053-S-CH3-2'F 30 mg/kg): significantly longer search time on the fourth day
- platform zone entries during the probe trial [9]: lack of incapacitating consequences
- % of control current, α2β3γ2 [2]: 165 ± 2%
- effect on percentage of time on open arms ([3]; 30 mg/kg i.p.): effective treatments
- effect on total arm entries ([3]; 10, 20 and 30 mg/kg i.p., Dunnett's test vs solvent): significant effect of the two higher doses
- effect on distance travelled in the open arms ([3]; 10, 20 and 30 mg/kg i.p., overall treatment effect): no significant effect of treatment
- effect on percentage of open arm entries ([3]; 10, 20 and 30 mg/kg i.p., post hoc test): neither of the single doses was significant on its own
- % of control current, α5β3γ2 [5]: 130 ± 3%
- % of control current, α3β3γ2 [6]: 149 ± 3%
- % of control current, α1β3γ2 [7]: 113 ± 2%
- Ki [10]: > 5 µM
- effect on total distance travelled during 45 min ([8]; 30 mg/kg i.p.): activity-depressing effect of all three treatments was significant
- dose inducing a hypolocomotor effect in the SLA [8]: 30 mg/kg

Compound: C#Cc1ccc2c(c1)C(c1ccccc1F)=NC(C)c1c(C(=O)OCC)ncn1-2 (centres unmarked) [SH-053-R-CH3-2'F, 8-ethynyl-6-(2-fluorophenyl)-4-methyl-4H-2,5,10b-triaza-benzo[e]azulene-3-carboxylic acid ethyl ester]
- platform zone entries during the probe trial [9]: lack of incapacitating consequences
- % of control current, α5β3γ2 ([11]; 0.1 µM): 183 ± 7%
- general activity- or anxiety-related parameters ([3]; doses up to 30 mg/kg i.p.): completely devoid of changes
- % of control current, α2β3γ2 [12]: 124 ± 9%
- % of control current, α3β3γ2 ([13]; 100 nM, EC3 GABA, mean ± SEM, 0.1 µM): 125 ± 8%
- effect on total distance (locomotion), 30 min ([8]; 30 mg/kg i.p.): significantly depressed locomotion
- effect on distance travelled in 5-min bins ([8]; 10, 20 and 30 mg/kg i.p., 6 intervals): did not significantly decrease locomotion
- effect on central and peripheral zone locomotion ([8]; 20 and 30 mg/kg i.p.): decreased central, but not peripheral locomotion
- remaining activity at 0.1 µM [14, 18]: 111 ± 2%

Compound: C#Cc1ccc2c(c1)C(c1ccccc1F)=NC(C)c1c(C(=O)OCC)ncn1-2 (centres unmarked) [SH-053-S-CH3-2'F, 8-ethynyl-6-(2-fluorophenyl)-4-methyl-4H-2,5,10b-triaza-benzo[e]azulene-3-carboxylic acid ethyl ester]
- effect on locomotor activity ([15]; 30 mg/kg): significant decrease of locomotor activity
- dose inducing a hypolocomotor effect in the SLA [15]: 30 mg/kg
- platform zone entries during the probe trial [9]: lack of incapacitating consequences
- % of control current, α5β3γ2 ([11]; 0.1 µM): 218 ± 4%
- effect on percentage of open arm entries [16]: significant effect
- effect on percentage of time on open arms [16]: significant effect
- effects on general activity-related parameters [16]: without concomitant effects
- Ki [17]: > 5 µM
- % of control current, α2β3γ2 [12]: 169 ± 5%
- remaining activity at 0.1 µM [13]: 138 ± 5%
- % of control current, α1β3γ2 ([14]; 100 nM, EC3 GABA, mean ± SEM): non-significant changes relative to control current
- remaining activity at 1 µM [14, 18]: 164 ± 6%

Compound: CN1C(=O)CN=C(c2ccccc2)c2cc(Cl)ccc21 [diazepam]
- remaining activity at 0.1 µM ([11]; read-out: % of control current, α5β3γ2, 100 nM, EC3 GABA, mean ± SEM): 322 ± 7%
- effect on percentage of time on open arms ([3]; 2.0 mg/kg i.p.): effective treatments
- remaining activity at 0.1 µM ([12]; read-out: % of control current, α2β3γ2, 100 nM, EC3 GABA, mean ± SEM): 400 ± 22%
- remaining activity at 0.1 µM [13]: 461 ± 34%
- effect on total distance travelled during 45 min ([8]; 1.25 mg/kg i.p.): activity-depressing effect of all three treatments was significant
- effect on distance travelled in 5-min bins ([8]; 2 mg/kg i.p.): induced overt sedation during the first 10 min of recording
- effect on total distance (locomotion), 30 min ([8]; 2 mg/kg i.p.): significantly depressed locomotion
- remaining activity at 0.1 µM [14, 18]: 246 ± 16%

Compound: Cc1ccc(-c2nc3ccc(C)cn3c2CC(=O)N(C)C)cc1 [zolpidem]
- overall influence on water maze learning parameters (acquisition) ([9]; 0.5 mg/kg i.p. daily, vs control): different related to control
- percent of distance travelled in the NE quadrant that was in the target region ([9]; 2 mg/kg i.p., day 5 of acquisition, chance 40%): 40.5%
- overall influence on water maze learning parameters (acquisition) ([9]; 1 and 2 mg/kg i.p. daily, vs 0.5 mg/kg): behaviorally impaired related to 0.5 mg/kg zolpidem
- Peripheral ring distance, probe trial [9, 19]: 4.16±0.61 m
- Peripheral ring time, probe trial [9, 19]: 33.48 ± 3.68 s
- Platform distance, probe trial [9, 19]: 0.097±0.031 m
- Platform number of entries, probe trial [9, 19]: 1.25±0.41
- Platform quadrant (NE) distance, probe trial [9, 19]: 2.41±0.29 m
- Platform quadrant (NE) time, probe trial [9, 19]: 11.86 ± 1.44 s
- Platform ring distance, probe trial [9, 19]: 5.27±0.68 m
- Platform ring time, probe trial [9, 19]: 21.46 ± 3.05 s
- Target region distance, probe trial [9, 19]: 1.51±0.27 m
- Target region time, probe trial [9, 19]: 7.26 ± 1.36 s
- Peripheral ring distance, probe trial [9, 20]: 6.09±0.89 m
- Peripheral ring time, probe trial [9, 20]: 39.86 ± 1.67 s
- Platform distance, probe trial [9, 20]: 0.047±0.028 m
- Platform number of entries, probe trial [9, 20]: 0.38±0.18
- Platform quadrant (NE) distance, probe trial [9, 20]: 2.18±0.51 m
- Platform ring distance, probe trial [9, 20]: 4.48±0.31 m
- Platform ring time, probe trial [9, 20]: 17.31 ± 1.38 s
- Target region distance, probe trial [9, 20]: 1.12±0.14 m
- Target region time, probe trial ([9]; zolpidem 1.0 mg/kg during acquisition, ±SEM, P<0.05 vs ZOL 0.5): 4.03 ± 0.52 s
- Peripheral ring time, probe trial [9, 21]: 42.80 ± 3.35 s
- Platform distance, probe trial [9, 21]: 0.053±0.023 m
- Platform number of entries, probe trial [9, 21]: 0.50±0.19
- Platform quadrant (NE) distance, probe trial [9, 21]: 2.22±0.44 m
- Platform ring distance, probe trial [9, 21]: 4.00±0.65 m
- Platform ring time, probe trial [9, 21]: 14.50 ± 2.60 s
- Target region distance, probe trial [9, 21]: 0.99±0.22 m
- Peripheral ring distance, probe trial [9, 22]: 7.85±0.82 m
- Target region time, probe trial [9, 22]: 3.51 ± 0.76 s
- % of control current, α5β3γ2 [11]: non-significant changes relative to control current
- Ki ([4]; read-out: Ki α5, [3H]flunitrazepam, transfected HEK 293T, duplicate): > 10 µM
- remaining activity at 0.1 µM [14, 18]: 180 ± 14%
